Legend:
Type in all cases: biochemical
[1] = test system: Lipase from Candida antarctica (Type A); test: Enantioselective acylation of R,S-1-phenyl ethanol in ionic liquids
Experimental: (§1) 4.4 ml of an ionic liquid in accordance with Table 3 or tert-butylmethyl ether are mixed with 122 μl of vinyl acetate and 54 μl of 1-phenyl ethanol so that a substrate solution with approximately 0.1 mol/l of 1-phenyl ethanol and 0.3 mol/l of vinyl acetate is obtained. Each 1 mg of lyophilised lipase (>120 U/mg) is mixed with 0.4 ml of substrate solution, thoroughly mixed and incubated at 24° C. for 3-4 days, shaking slightly.
(§2) This hexane/isopropanol extract is used to determine the concentrations and enantiomer ratios of 1-phenyl ethanol and 1-phenylethyl acetate using HPLC. The conversion and the enantiomer excess were calculated from these concentrations (see Table 3).

[2] = biological target: T1, Lipase from Candida antarctica (Type B) (Moesziomyces antarcticus, UniProt P41365); test: Enantioselective acylation of R,S-1-phenylethanol in ionic liquids; conditions: 24° C., 3-4 days
Experimental: as §1, §2

[3] = test system: Lipase from Alcaligines sp.; test: Enantioselective acylation of R,S-1-phenyl ethanol in ionic liquids
Experimental: as §1, §2

[4] = test system: Lipase from Pseudomonas sp.; test: as above; parameters: key: (+) good to better; (±) the same
Experimental: as §1
as §2, with “For further processing 100 μl of the reaction formulation is mixed with 1 ml of n-hexane/Isopropanol (97.5/2.5 v/v) and mixed thoroughly. This” for “This”
Each 3 mg of lyophilised lipase (400 U/mg) is mixed with 0.4 ml of a substrate solution as in Example 3. The further procedure corresponds to that described in Example 3.

[5] = biological target: T2, Formate dehydrogenase from Candida boidinii (FDH) (Candida boidinii, UniProt O13437); test: NAD reduction by formate dehydrogenase; enzyme activity with buffer replaced by ionic liquid; parameters: key: (+) good to better; (±) the same; conditions: 25° C., pH 7
T2 sequence (O13437 1-364): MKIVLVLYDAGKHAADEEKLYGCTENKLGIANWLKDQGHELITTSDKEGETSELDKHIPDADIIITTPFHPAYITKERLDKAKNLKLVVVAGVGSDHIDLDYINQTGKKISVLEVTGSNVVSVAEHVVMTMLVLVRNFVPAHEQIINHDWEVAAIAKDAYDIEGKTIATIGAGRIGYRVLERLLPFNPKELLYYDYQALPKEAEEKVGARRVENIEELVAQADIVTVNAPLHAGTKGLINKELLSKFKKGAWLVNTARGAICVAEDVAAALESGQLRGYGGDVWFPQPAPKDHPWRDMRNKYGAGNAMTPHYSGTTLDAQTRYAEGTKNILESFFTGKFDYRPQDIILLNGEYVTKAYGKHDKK
Experimental: The FDH-catalysed oxidation of formic acid to carbon dioxide by the reduction of nicotinamide adenine dinucleotide (NAD^+ to NADH+H^+) is used as the test reaction to determine the enzyme activity. In the enzyme assay the increase in NADH with time at 25° C. is detected photometrically at a wavelength of 340 nm.
Composition of the enzyme assay: 1 ml buffer solution (50 mM triethanolamine hydrochloride, 1 mM dithiothreitol, hydrochloric acid) pH 7 is mixed with 0.1 ml of aqueous sodium formate solution (2.4 M) and 0.1 ml of enzyme solution (0.7 mg/ml, 8.4 U). The enzyme solution already contains the cofactor NAD (6 mM).

[6] = biological target: T1, Lipase from Candida antarctica (Type B); test: Recycling of the lipase in ionic liquid by distillation; conditions: 40 min at 40° C.; distillation 85° C., 0.06 mbar
Experimental: 600 mg of lyophilised lipase (approx. 10 U/mg) is mixed with 4 ml of ionic liquid (BMIm^+(CF3SO2)2N^−), 1.2 ml of vinyl acetate and 0.7 ml 1-phenyl ethanol and thoroughly mixed. The reaction mixture is incubated for 40 min at 40° C.
The non-converted educts and the reaction product […] is then distilled off (85° C., 0.06 mbar).
The enzyme/ionic liquid mixture is cooled, re-mixed with 1.2 ml of vinyl acetate and 0.7 ml of 1-phenyl ethanol and again incubated for 40 min at 40° C.

T1 sequence (P41365 26-342): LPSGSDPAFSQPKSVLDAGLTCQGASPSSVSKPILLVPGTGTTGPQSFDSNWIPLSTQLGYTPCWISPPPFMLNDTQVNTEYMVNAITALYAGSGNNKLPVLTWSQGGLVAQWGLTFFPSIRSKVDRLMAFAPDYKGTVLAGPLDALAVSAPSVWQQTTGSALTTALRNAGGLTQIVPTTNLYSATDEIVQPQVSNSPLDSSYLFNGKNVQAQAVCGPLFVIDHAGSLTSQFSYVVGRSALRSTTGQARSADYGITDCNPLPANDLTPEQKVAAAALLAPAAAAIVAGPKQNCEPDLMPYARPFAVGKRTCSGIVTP

Compound	Conversion compared to the standard reaction in tert-butylmethyl ether [1]	Enantiomer excess compared to the standard reaction in tert-butylmethyl ether [1]	Conversion compared to the standard reaction in tert-butylmethyl ether [2]	Enantiomer excess compared to the standard reaction in tert-butylmethyl ether [2]	Conversion compared to the standard reaction in tert-butylmethyl ether [3]	Enantiomer excess compared to the standard reaction in tert-butylmethyl ether [3]	Conversion compared to the standard reaction in tert-butylmethyl ether [4]	Enantiomer excess compared to the standard reaction in tert-butylmethyl ether [4]	enzyme activity compared with the standard reaction in the buffer solution ([5]; 25 vol % ionic liquid)	enzyme activity compared with the standard reaction in the buffer solution ([5]; 50 vol % ionic liquid)	enzyme activity compared with the standard reaction in the buffer solution ([5]; 75 vol % ionic liquid)	lipase activity on repeated incubation and distilling off [6]
CCCCCCCCC[n+]1ccn(C)c1.F[P-](F)(F)(F)(F)F [NMIm^+ PF6^−, Nonyl-methyl-imidazolium PF6^−]	+	+	±	+								
CCCC[n+]1ccc(C)cc1.F[B-](F)(F)F [4-MBP^+ BF4^−, 4-methyl-butyl-pyridinium BF4^−]			+	+	±	+	±	+				
CCCCn1cc[n+](C)c1.F[P-](F)(F)(F)(F)F [BMIm^+ PF6^−, Butyl-methyl-imidazolium PF6^−]	+	+			±	+						
CCCCCCn1cc[n+](C)c1.F[B-](F)(F)F [HMIm^+ BF4^−, Hexyl-methyl-imidazolium BF4^−]	+	+	±	+	±	+						
CCCCn1cc[n+](C)c1.O=S(=O)([O-])C(F)(F)F [BMIm^+ CF3SO3^−, Butyl-methyl-imidazolium-trifluoro methane sulphonate (=triflate)]	+	+	+	+	±	+	+	+				
CCCCn1cc[n+](C)c1.F[B-](F)(F)F [BMIm^+ BF4^−, Butyl-methyl-imidazolium BF4^−]	±	+	+	+	±	+						
Methyl-methyl-imidazolium-methyl sulphate [MMIm^+ MeSO4^−]									±	+	+	
CCCCCCCCn1cc[n+](C)c1.F[B-](F)(F)F [OMIm^+ BF4^−, Octyl-methyl-imidazolium BF4^−]	+	±	+	+	±	+						
CCCCn1cc[n+](C)c1.O=S(=O)([N-]S(=O)(=O)C(F)(F)F)C(F)(F)F [BMIm^+ (CF3SO2)2N^−]			+	+			+	+				without the lipase activity diminishing

Source: patent US7754462B2, “Enzyme catalysis in the presence of ionic liquids” (priority 2000, dated 2010)
